Reference: PMC12845239, “Development of Novel Proline- and Pipecolic Acid-Based Allosteric Inhibitors of Dengue and Zika Virus NS2B/NS3 Protease” (Pharmaceuticals, 2025)
Like-named read-outs stand apart in the source and are kept apart here.

Experiments:
ZIKV NS2B/NS3 = ZIKV NS2B/NS3 (Zika virus, UniProt A0A024B7W1, R1467A/R1531G); assay: ZIKV protease relative inhibition assay (fluorometric, Bz-Nle-Lys-Arg-Arg-AMC 10 µM); type: biochemical; settings: 50 µM inhibitor, ZIKV protease 10 nM, substrate 10 µM
DENV-2 NS2B-NS3 protease = DENV-2 NS2B-NS3 protease (Dengue virus type 2, UniProt P29990); assay: DENV2 Reporter Gene Assay (DENV2proHeLa); type: cell-based; settings: for inhibition at 25 µM: M-HeLa, read-out: DENV2 proHeLa % inhibition at 25 µM; for EC50: read-out: DENV2 proHeLa EC50
Procedure: The DENV2proHeLa assay was performed as published previously. Stable cells were seeded into 96-well plates with a density of 2 × 10^4 cells per well and treated immediately with inhibitors of the DENV protease in a final volume of 100 μL. After incubation for 24 h at 37 °C, the medium was removed, and cells were lysed by adding 25 μL of lysis buffer (Promega) for 15 min at room temperature. Luciferase activity was recorded using a FLUOstar omega plate reader (BMG Labtech, Ortenberg, Germany) with injections of 100 μL per well of coelenterazine (2.75 μM in PBS). Luminescence was recorded for 5 s. Each concentration was assayed in triplicate. The percentage of inhibition was calculated in relation to the untreated control. For EC50 calculations, data were fitted and calculated with Prism 6.1 (GraphPad Software, Inc., San Diego, CA, USA) using a 4-parameter nonlinear dose-response curve with background subtraction (wells without cells).

DENV NS2B/NS3 = biological target: T1, DENV NS2B/NS3 (Dengue virus type 2, UniProt P29990); assay: biochemical; settings: for inhibition at 50 µM: read-out: DENV % inhibition at 50 µM; for inhibition at 50 µM / DENV % inhibition at 50 µM: 50 µM inhibitor, DENV-2 protease 100 nM, substrate 50 µM
T1 construct: the hydrophilic 40-residue core domain of NS2B (NS2B(H)-NS3pro); The used DENV protease construct contains the protease domain of NS3

serine protease of ZIKV = settings: cited from earlier work
serine protease of DENV = test system: serine protease of DENV; parameters: method as in PMID 31769670; settings: cited from earlier work
[1] = 25 µM, HeLa reporter cells, 24 h

Sequence of DENV-2 NS2B-NS3 protease (P29990 1346-1653): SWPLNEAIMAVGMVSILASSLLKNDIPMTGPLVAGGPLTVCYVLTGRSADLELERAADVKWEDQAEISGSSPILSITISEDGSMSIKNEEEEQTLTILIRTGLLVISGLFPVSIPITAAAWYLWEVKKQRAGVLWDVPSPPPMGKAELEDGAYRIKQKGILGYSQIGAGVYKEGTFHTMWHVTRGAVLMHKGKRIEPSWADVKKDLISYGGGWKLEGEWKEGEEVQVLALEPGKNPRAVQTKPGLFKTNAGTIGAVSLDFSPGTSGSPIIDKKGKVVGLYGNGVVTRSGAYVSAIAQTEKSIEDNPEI
T1 sequence (P29990 1398-1437): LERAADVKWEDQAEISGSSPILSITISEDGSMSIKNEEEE
T1 sequence (P29990 1476-1653): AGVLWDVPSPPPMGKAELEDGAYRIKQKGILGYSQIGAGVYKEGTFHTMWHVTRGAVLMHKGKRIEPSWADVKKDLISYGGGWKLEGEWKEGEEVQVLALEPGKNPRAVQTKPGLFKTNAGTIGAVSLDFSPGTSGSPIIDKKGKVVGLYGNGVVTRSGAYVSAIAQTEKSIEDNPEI

Compound	ZIKV % inhibition at 50 µM (ZIKV NS2B/NS3)	inhibition at 25 µM (DENV-2 NS2B-NS3 protease; [1]) [%]	IC50 (DENV NS2B/NS3) [µM]	inhibition at 50 µM (DENV NS2B/NS3) [%]	other results
O=C(Nc1nc2cc(O)c(O)cc2s1)[C@@H]1CCCN1S(=O)(=O)c1ccccc1C(F)(F)F [Compound 2]	49.6%	27.7	5.1 ± 0.29	–	–
O=C(Nc1nc2cc(O)c(O)cc2s1)[C@@H]1CCCN1S(=O)(=O)c1cccc(C(F)(F)F)c1 [Compound 3]	36.6%	46.6	5 ± 0.29	–	–
O=C(Nc1nc2cc(O)c(O)cc2s1)[C@@H]1CCCN1S(=O)(=O)c1ccc(C(F)(F)F)cc1 [Compound 4]	35.4%	19.5	5.6 ± 0.39	–	–
O=C(Nc1nc2cc(O)c(O)cc2s1)[C@@H]1CCCN1S(=O)(=O)c1ccccc1[N+](=O)[O-] [Compound 5, (S)-N-(5,6-Dihydroxybenzo[d]thiazol-2-yl)-1-((2-nitrophenyl)sulfonyl)pyrrolidine-2-carboxamide]	–	18.5	8 ± 0.52	–	–
O=C(Nc1nc2cc(O)c(O)cc2s1)[C@@H]1CCCN1S(=O)(=O)c1cccc([N+](=O)[O-])c1 [Compound 6, (S)-N-(5,6-Dihydroxybenzo[d]thiazol-2-yl)-1-((3-nitrophenyl)sulfonyl)pyrrolidine-2-carboxamide]	–	23.5	6.4 ± 0.52	–	–
O=C(Nc1nc2cc(O)c(O)cc2s1)[C@@H]1CCCN1S(=O)(=O)c1ccc([N+](=O)[O-])cc1 [Compound 7, (S)-N-(5,6-Dihydroxybenzo[d]thiazol-2-yl)-1-((4-nitrophenyl)sulfonyl)pyrrolidine-2-carboxamide, reference compound]	–	43	5 ± 0.37	–	IC50 (serine protease of ZIKV): 0.93 µM; IC50 (serine protease of DENV): 8.58 µM
O=C(Nc1nc2cc(O)c(O)cc2s1)[C@H]1CCCN1S(=O)(=O)c1ccccc1[N+](=O)[O-] [Compound 14, (R)-N-(5,6-Dihydroxybenzo[d]thiazol-2-yl)-1-((2-nitrophenyl)sulfonyl)pyrrolidine-2-carboxamide]	68.5%	–	–	13.5	inhibition at 25 µM (DENV-2 NS2B-NS3 protease): 17.7%
O=C(Nc1nc2cc(O)c(O)cc2s1)[C@H]1CCCN1S(=O)(=O)c1cccc([N+](=O)[O-])c1 [Compound 15, (R)-N-(5,6-Dihydroxybenzo[d]thiazol-2-yl)-1-((3-nitrophenyl)sulfonyl)pyrrolidine-2-carboxamide]	54.6%	26.9	–	16.9	–
O=C(Nc1nc2cc(O)c(O)cc2s1)[C@H]1CCCN1S(=O)(=O)c1ccc([N+](=O)[O-])cc1 [Compound 16, (R)-N-(5,6-Dihydroxybenzo[d]thiazol-2-yl)-1-((4-nitrophenyl)sulfonyl)pyrrolidine-2-carboxamide]	–	51.3	–	40.7	–
O=C(Nc1nc2cc(O)c(O)cc2s1)[C@@H]1CCCCN1S(=O)(=O)c1ccccc1C(F)(F)F [Compound 17, (S)-N-(5,6-Dihydroxybenzo[d]thiazol-2-yl)-1-((2-(trifluoromethyl)phenyl)sulfonyl)piperidine-2-carboxamide]	57.2%	41.7	–	58.7	–
O=C(Nc1nc2cc(O)c(O)cc2s1)[C@@H]1CCCCN1S(=O)(=O)c1cccc(C(F)(F)F)c1 [Compound 18, (S)-N-(5,6-Dihydroxybenzo[d]thiazol-2-yl)-1-((3-(trifluoromethyl)phenyl)sulfonyl)piperidine-2-carboxamide]	42.2%	–	–	55.9	EC50 (DENV-2 NS2B-NS3 protease; HeLa reporter cells, 24 h): 12.8 ± 0.99 µM
O=C(Nc1nc2cc(O)c(O)cc2s1)[C@@H]1CCCCN1S(=O)(=O)c1ccc(C(F)(F)F)cc1 [Compound 19]	–	–	–	51.3	EC50 (DENV-2 NS2B-NS3 protease; HeLa reporter cells, 24 h): 20.3 ± 1.5 µM
O=C(Nc1nc2cc(O)c(O)cc2s1)[C@@H]1CCCCN1S(=O)(=O)c1ccccc1[N+](=O)[O-] [Compound 20, (S)-N-(5,6-Dihydroxybenzo[d]thiazol-2-yl)-1-((2-nitrophenyl)sulfonyl)piperidine-2-carboxamide]	–	31.4	–	29.6	–
O=C(Nc1nc2cc(O)c(O)cc2s1)[C@@H]1CCCCN1S(=O)(=O)c1cccc([N+](=O)[O-])c1 [Compound 21, (S)-N-(5,6-Dihydroxybenzo[d]thiazol-2-yl)-1-((3-nitrophenyl)sulfonyl)piperidine-2-carboxamide]	–	–	–	–	EC50 (DENV-2 NS2B-NS3 protease; HeLa reporter cells, 24 h): 22 ± 1.5 µM; DENV % inhibition at 50 µM (DENV NS2B/NS3): n.i.
O=C(Nc1nc2cc(O)c(O)cc2s1)[C@@H]1CCCCN1S(=O)(=O)c1ccc([N+](=O)[O-])cc1 [Compound 22, (S)-N-(5,6-Dihydroxybenzo[d]thiazol-2-yl)-1-((4-nitrophenyl)sulfonyl)piperidine-2-carboxamide]	–	–	–	59.8	EC50 (DENV-2 NS2B-NS3 protease; HeLa reporter cells, 24 h): 13.4 ± 1.2 µM
O=C(Nc1nc2cc(O)c(O)cc2s1)[C@H]1CCCCN1S(=O)(=O)c1ccccc1C(F)(F)F [Compound 23, (R)-N-(5,6-Dihydroxybenzo[d]thiazol-2-yl)-1-((2-(trifluoromethyl)phenyl)sulfonyl)piperidine-2-carboxamide]	36.2%	18.5	41.8 ± 2.2	–	–
O=C(Nc1nc2cc(O)c(O)cc2s1)[C@H]1CCCCN1S(=O)(=O)c1cccc(C(F)(F)F)c1 [Compound 24, (R)-N-(5,6-Dihydroxybenzo[d]thiazol-2-yl)-1-((3-(trifluoromethyl)phenyl)sulfonyl)piperidine-2-carboxamide]	34.5%	–	30.8 ± 1.7	–	EC50 (DENV-2 NS2B-NS3 protease; HeLa reporter cells, 24 h): 5.2 ± 0.43 µM
O=C(Nc1nc2cc(O)c(O)cc2s1)[C@H]1CCCCN1S(=O)(=O)c1ccc(C(F)(F)F)cc1 [Compound 25]	48.4%	38	22.3 ± 1.4	–	–
O=C(Nc1nc2cc(O)c(O)cc2s1)[C@H]1CCCCN1S(=O)(=O)c1ccccc1[N+](=O)[O-] [Compound 26, (R)-N-(5,6-Dihydroxybenzo[d]thiazol-2-yl)-1-((2-nitrophenyl)sulfonyl)piperidine-2-carboxamide]	–	9.5	38.9 ± 4	–	–
O=C(Nc1nc2cc(O)c(O)cc2s1)[C@H]1CCCCN1S(=O)(=O)c1cccc([N+](=O)[O-])c1 [Compound 27, (R)-N-(5,6-Dihydroxybenzo[d]thiazol-2-yl)-1-((3-nitrophenyl)sulfonyl)piperidine-2-carboxamide]	–	–	35 ± 2.1	–	EC50 (DENV-2 NS2B-NS3 protease; HeLa reporter cells, 24 h): 5.1 ± 0.53 µM
O=C(Nc1nc2cc(O)c(O)cc2s1)[C@H]1CCCCN1S(=O)(=O)c1ccc([N+](=O)[O-])cc1 [Compound 28, (R)-N-(5,6-Dihydroxybenzo[d]thiazol-2-yl)-1-((4-nitrophenyl)sulfonyl)piperidine-2-carboxamide]	–	–	27 ± 1.6	–	EC50 (DENV-2 NS2B-NS3 protease; HeLa reporter cells, 24 h): 9 ± 0.4 µM
(S)-N-(5,6-Dihydroxybenzo[d]thiazol-2-yl)-1-(2-(trifluoromethyl)benzoyl)pyrrolidine-2-carboxamide [Compound 8]	n.i.	–	–	–	DENV2 proHeLa % inhibition at 25 µM (DENV-2 NS2B-NS3 protease; [1]): n.i.; DENV % inhibition at 50 µM (DENV NS2B/NS3): n.i.
(S)-N-(5,6-Dihydroxybenzo[d]thiazol-2-yl)-1-(3-(trifluoromethyl)benzoyl)pyrrolidine-2-carboxamide [Compound 9]	56.5%	–	–	–	DENV2 proHeLa % inhibition at 25 µM (DENV-2 NS2B-NS3 protease; [1]): 42.2%; DENV % inhibition at 50 µM (DENV NS2B/NS3): 55.9%
(S)-N-(5,6-Dihydroxybenzo[d]thiazol-2-yl)-1-(4(trifluoromethyl)benzoyl)pyrrolidine-2-carboxamide [Compound 10]	39.2%	–	–	–	DENV2 proHeLa % inhibition at 25 µM (DENV-2 NS2B-NS3 protease; [1]): 15.4%; DENV % inhibition at 50 µM (DENV NS2B/NS3): 16.8%
